# System: human basal carcinoma cell line TE 354.T
# Test: MTT cell proliferation assay, human basal cell carcinoma cell line TE 354.T
# Type: cell-based
# Conditions: for Mean OD: MTT Optical Density at 570 nm
# Protocol: The three human skin cancer cell lines were: • 1) Human Melanoma cell line (A-2058). • 2) Human Epidermoid (Squamous) Carcinoma cell line (A-431). • 3) Human Basal Cell Carcinoma cell line (TE 354.T).
# The cell lines were revived from cryostorage and cultured in the presence of the test and reference samples. An MIT assay was then performed on the cultures to determine the effect of the samples on the cell viability and proliferation. The percentage standard error of the mean was assessed and extreme outliers were removed if the SEM%>15. Preliminary statistical significance was assessed with an independent Student t-test at α<0.05 (with and without outliers). The methodology was based on the procedures reported by: • Ahn, N G, Campbell J S (1993). […] Proc Natl Acad Sci. 90: 5143-5147. • Galan-Cobo, A et al (2014). Functional inhibition of aquaporin-3 with a gold-based compound induces blockage of cell proliferation. J Cellul. Physiol. 229: 1787-1801. • Roomi, M W, Kalinovsky, J et al (2013) Effect of a nutrient mixture on matrix metalloproteinase-9 dimers in various human cancer cell lines. Inter 3 Oncol. 44: 936-942. • Huang, H C, Lin, M K et al (2013). Cardenolides and bufadienolide glycosides from Kalanchoe tubiflora and evaluation of cytotoxicity. Planta Medica. 79: 1362-1369. • Tilli, C M L J, Stavast-Kooy, A J W et al (2003). The garlic-derived organosulfur component ajoene decreases basal cell carcinoma tumor size by inducing apoptosis. Arch Dermatol Res. 295: 117-123.
# • 1. Human melanoma cell line (A-2058, ATCC CRL11147) was obtained from ATCC, Bethesda, Md., USA. • 2. Human squamous (epidermoid) carcinoma cell line (A-431, ATCC CRL1555) was obtained from ATCC, Bethesda, Md. USA. • 3. Human basal cell carcinoma cell line (TE 354.T, ATCC CRL7762) was obtained from ATCC, Bethesda, Md., USA. • 4. Dulbecco's Modified Eagle's Medium (DMEM) was obtained from GIBCO (12100-038). 10% Foetal Bovine Serum (FBS), 100 U/ml Penicillin and […] Streptomycin were added before use. • 5. Penicillin-streptomycin solution, stored at −20° C. consisting of 10000 units/ml penicillin and 10 mg/ml streptomycin in 0.9% NaCl was obtained from Sigma (#P-0781). • 6. Trypsin-EDTA solution consisting of 0.25% Trypsin/EDTA was obtained from Invitrogen (#15400054). • 7. Phosphate buffered saline (PBS) was prepared in-house. • 8. Hanks Balanced Salt Solution (HBSS), stored at 4° C. was obtained from GIBCO (#14185-052). • 9. Foetal Bovine Serum (FBS) stored at −20° C. was obtained from GIBCO (#10091-148). • 10. MTT Reagent, 100 mg/vial, was obtained from Sigma (M-2128) and then dissolved in PBS at 10 mg/ml and stored at −20° C. A 5 mg/ml MTT solution was prepared in PBS and stored at 4° C. as the working solution. • 11. MU lysis buffer: 10% sodium dodecyl sulphate (SDS)/45% Dimethyl Formamide was prepared by dissolving 20 g SDS in 100 ml of double-distilled water (DDW), and then adding 90 ml of Dimethyl Formamide to the solution. The pH was adjusted to 4.7 by glacial acetic acid, and DDW added up to a final volume of 200 ml. • 12. 5-Fluorouracil (5-FU) was supplied by Sigma (F-6627). Three working solutions were prepared at 19.5 μg/ml. 6.5 μg/ml and 1.95 μg/ml dissolved in 15% Ethanol/HBSS. Final concentrations were 1.95 μg/ml (15 μM), 0.65 μg/ml (5 μM) and 0.195 μg/ml (1.5 μM).
# • 1. Each of the cell lines was revived from cryostorage. • 2. Following initial propagation using the media described above (Characterisation of Test System, and Medium Preparation), the cell culture was subcultured using trypsin-EDTA. The media was removed and 5ml of the trypsin-EDTA solution added and incubated at 37° C. for 5 min or until all the cells had detached. The trypsin was neutralised by the addition of an equal volume of the relevant medium and centrifugation of the suspension at 300 g (1200 rpm) for 5 min at 4° C. • 3. […]
structure (smiles),measurement,setting,value
"O=c1[nH]cc(F)c(=O)[nH]1 [5-fluorouracil, reference compound]",Mean OD,0.195 μg/ml,0.2548
same,Mean OD,0.65 μg/ml,0.2656
same,Mean OD,1.95 μg/ml,0.2553
same,inhibition at 0.195 µg/mL,"Homo sapiens, 0.195 μg/ml, 24 hr incubation, vs cells only",5.49%
same,inhibition at 0.65 µg/mL,"Homo sapiens, 0.65 μg/ml, 24 hr incubation, vs cells only",1.49%
same,inhibition at 1.95 µg/mL,"Homo sapiens, 1.95 μg/ml, 24 hr incubation, vs cells only",5.31%

# Reference: patent publication US20170209499A1, “Propolis and Extracts Thereof for the Treatment of Skin Cancers and Improvement of Skin Health” (Manuka Health New Zealand Limited, priority 2014, published 2017)
